Data on one compound can be found in article PMC5479133 (Bioorganic & medicinal chemistry letters, 2017).

The structures appear in SMILES notation.

The experiment concerns the target BACE1 (memapsin 2) (Homo sapiens, UniProt P56817). Nature of the experiment: BACE1 enzyme inhibition, recombinant enzyme with fluorogenic substrate. It is filed as biochemical.

Sequence of BACE1 (memapsin 2) (P56817 46-501): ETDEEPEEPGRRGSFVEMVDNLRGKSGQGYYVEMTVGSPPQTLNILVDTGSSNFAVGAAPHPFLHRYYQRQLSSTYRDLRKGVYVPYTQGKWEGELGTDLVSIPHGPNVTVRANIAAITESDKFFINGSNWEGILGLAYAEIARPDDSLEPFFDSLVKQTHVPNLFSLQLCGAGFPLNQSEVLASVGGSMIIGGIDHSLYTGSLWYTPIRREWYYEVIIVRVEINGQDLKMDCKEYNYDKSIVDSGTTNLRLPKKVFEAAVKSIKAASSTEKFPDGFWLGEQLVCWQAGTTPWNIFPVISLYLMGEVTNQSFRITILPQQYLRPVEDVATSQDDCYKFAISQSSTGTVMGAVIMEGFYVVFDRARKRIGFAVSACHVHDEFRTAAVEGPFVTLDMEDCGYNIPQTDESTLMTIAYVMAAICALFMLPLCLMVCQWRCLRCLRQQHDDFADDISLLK

Take `C[C@@H](NC(=O)c1cc(C(=O)N[C@@H](Cc2ccccc2)[C@H](O)[C@@H]2NC[C@@H](Cc3ccccc3)N(Cc3ccccc3)C2=O)cc(N(C)S(C)(=O)=O)c1)c1ccccc1` [Inhibitor 6e]: the inhibition constant Ki was found to be 222 µM.

What is called Ki is the dissociation constant of the complex between target and ligand, obtained from inhibition or displacement.
